Laboratory results as given in patent publication US10405547B2, “Substituted cyclic amides as herbicides” (FMC Corporation, priority 2015, dated 2019).

Columns and labels:
Format in all cases: in vivo
[1] = tested on: foxtail, giant (Setaria faberii); assay: Test A preemergence, giant foxtail; details: 0 to 100 scale (0 no effect, 100 complete control)
Summary of the method: (§1)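 Greenhouse test: compounds in solvent with surfactant sprayed onto loam–sand soil after planting (preemergence) or onto plants 2-10 cm at the one- to two-leaf stage (postemergence). Injury visually rated versus untreated controls after about 10 days on a 0-100 scale (100 = complete control).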

[2] = tested on: ryegrass, Italian (Lolium multiflorum); assay: Test A preemergence, Italian ryegrass; details: 0 to 100 scale (0 no effect, 100 complete control)
Summary of the method: as §1

[3] = tested on: barnyardgrass (Echinochloa crus-galli); assay: Test A preemergence, barnyardgrass; details: 0 to 100 scale (0 no effect, 100 complete control)
Summary of the method: as §1

[4] = tested on: ragweed (common ragweed, Ambrosia elatior); assay: Test A postemergence, ragweed; details: visual injury, 0 to 100 scale (0 no effect, 100 complete control), approximately 10 days
Summary of the method: as §1

[5] = tested on: ryegrass, Italian (Lolium multiflorum); assay: Test A postemergence, Italian ryegrass; details: visual injury, 0 to 100 scale (0 no effect, 100 complete control), approximately 10 days
Summary of the method: as §1

[6] = tested on: blackgrass (Alopecurus myosuroides); assay: Test A postemergence, blackgrass; details: visual injury, 0 to 100 scale (0 no effect, 100 complete control), approximately 10 days
Summary of the method: as §1

[7] = tested on: ragweed (common ragweed, Ambrosia elatior); assay: Test A preemergence, ragweed; details: 0 to 100 scale (0 no effect, 100 complete control)
Summary of the method: as §1

[8] = tested on: kochia (Kochia scoparia); assay: Test A postemergence, kochia; details: visual injury, 0 to 100 scale (0 no effect, 100 complete control), approximately 10 days
Summary of the method: as §1

[9] = tested on: barnyardgrass (Echinochloa crus-galli); assay: Test B flooded paddy test, barnyardgrass; details: 250 g ai/ha, applied to paddy water, visual rating after 13 to 15 days, scale 0 (no effect) to 100 (complete control)
Text: (§2) At time of treatment, test pots were flooded to 3 cm above the soil surface, treated by application of test compounds directly to the paddy water, and then maintained at that water depth for the duration of the test. Treated plants and controls were maintained in a greenhouse for 13 to 15 days, after which time all species were compared to controls and visually evaluated. […] A dash (-) response means no test result.

[10] = tested on: pigweed (Amaranthus retroflexus); assay: Test A preemergence, pigweed; details: 0 to 100 scale (0 no effect, 100 complete control)
Summary of the method: as §1

[11] = tested on: kochia (Kochia scoparia); assay: Test A preemergence, kochia; details: 0 to 100 scale (0 no effect, 100 complete control)
Summary of the method: as §1

[12] = tested on: rice (Oryza sativa); assay: Test B flooded paddy test, rice; details: 250 g ai/ha, applied to paddy water, visual rating after 13 to 15 days, scale 0 (no effect) to 100 (complete control)
Text: as §2

[13] = tested on: corn (Zea mays); assay: Test A postemergence, corn; details: visual injury, 0 to 100 scale (0 no effect, 100 complete control), approximately 10 days
Summary of the method: as §1

[14] = tested on: foxtail, giant (Setaria faberii); assay: Test A postemergence, giant foxtail; details: visual injury, 0 to 100 scale (0 no effect, 100 complete control), approximately 10 days
Summary of the method: as §1

[15] = tested on: barnyardgrass (Echinochloa crus-galli); assay: Test A postemergence, barnyardgrass; details: visual injury, 0 to 100 scale (0 no effect, 100 complete control), approximately 10 days
Summary of the method: as §1

[16] = tested on: wheat (Triticum aestivum); assay: Test A postemergence, wheat; details: visual injury, 0 to 100 scale (0 no effect, 100 complete control), approximately 10 days
Summary of the method: as §1

[17] = tested on: galium (catchweed bedstraw, Galium aparine); assay: Test A postemergence, galium; details: visual injury, 0 to 100 scale (0 no effect, 100 complete control), approximately 10 days
Summary of the method: as §1

[18] = tested on: sedge, umbrella (small-flower umbrella sedge, Cyperus difformis); assay: Test B flooded paddy test, umbrella sedge; details: 250 g ai/ha, applied to paddy water, visual rating after 13 to 15 days, scale 0 (no effect) to 100 (complete control)
Text: as §2

[19] = tested on: pigweed (Amaranthus retroflexus); assay: Test A postemergence, pigweed; details: visual injury, 0 to 100 scale (0 no effect, 100 complete control), approximately 10 days
Summary of the method: as §1

[20] = tested on: ducksalad (Heteranthera limosa); assay: Test B flooded paddy test, ducksalad; details: 250 g ai/ha, applied to paddy water, visual rating after 13 to 15 days, scale 0 (no effect) to 100 (complete control)
Text: as §2

Compound	Plant response rating, Foxtail, Giant ([1]; 125 g ai/ha)	Plant response rating, Foxtail, Giant ([1]; 500 g ai/ha)	Plant response rating, Ryegrass, Italian ([2]; 125 g ai/ha)	Plant response rating, Ryegrass, Italian ([2]; 500 g ai/ha)	Plant response rating, Barnyardgrass ([3]; 125 g ai/ha)	Plant response rating, Barnyardgrass ([3]; 500 g ai/ha)	Plant response rating, Ragweed ([4]; 125 g ai/ha)	Plant response rating, Ragweed ([4]; 500 g ai/ha)	Plant response rating, Ryegrass, Italian ([5]; 125 g ai/ha)	Plant response rating, Ryegrass, Italian ([5]; 500 g ai/ha)	Plant response rating, Blackgrass ([6]; 125 g ai/ha)	Plant response rating, Blackgrass ([6]; 500 g ai/ha)	Plant response rating, Ragweed ([7]; 125 g ai/ha)	Plant response rating, Ragweed ([7]; 500 g ai/ha)	Plant response rating, Barnyardgrass (Flood) [9]	Plant response rating, Pigweed ([10]; 125 g ai/ha)	Plant response rating, Pigweed ([10]; 500 g ai/ha)	Plant response rating, Kochia ([11]; 125 g ai/ha)	Plant response rating, Kochia ([11]; 500 g ai/ha)	Plant response rating, Rice (Flood) [12]	also measured
O=C1NCC(c2cccc(OCC3CC3)c2)C1C(=O)Nc1cccc(F)c1F (centres unmarked) [Compound 12]	90	90	0	20	90	90	30	30	20	50	0	60	0	0	0	0	30	0	40	0	Plant response rating, Kochia ([8]; 125 g ai/ha): 0; Plant response rating, Kochia ([8]; 500 g ai/ha): 20; Plant response rating, Corn ([13]; 125 g ai/ha): 0; Plant response rating, Corn ([13]; 500 g ai/ha): 60; Plant response rating, Foxtail, Giant ([14]; 125 g ai/ha): 70; Plant response rating, Foxtail, Giant ([14]; 500 g ai/ha): 90; Plant response rating, Barnyardgrass ([15]; 125 g ai/ha): 70; Plant response rating, Barnyardgrass ([15]; 500 g ai/ha): 90; Plant response rating, Wheat ([16]; 125 g ai/ha): 0; Plant response rating, Wheat ([16]; 500 g ai/ha): 50; Plant response rating, Galium ([17]; 125 g ai/ha): 0; Plant response rating, Galium ([17]; 500 g ai/ha): 50; Plant response rating, Sedge, Umbrella (Flood) [18]: 0; Plant response rating, Pigweed ([19]; 125 g ai/ha): 0; Plant response rating, Pigweed ([19]; 500 g ai/ha): 20; Plant response rating, Ducksalad (Flood) [20]: 20
CN1CC(c2cccc(Oc3ccc(F)cn3)c2)C(C(=O)Nc2cccc(F)c2F)C1=O (single isomer, unassigned) [Compound 61]	90	90	80	90	90	90	40	50	70	70	40	50	30	60	40	70	90	60	80	0	Plant response rating, Corn ([13]; 125 g ai/ha): 70; Plant response rating, Corn ([13]; 500 g ai/ha): 90; Plant response rating, Foxtail, Giant ([14]; 125 g ai/ha): 90; Plant response rating, Foxtail, Giant ([14]; 500 g ai/ha): 90; Plant response rating, Barnyardgrass ([15]; 125 g ai/ha): 70; Plant response rating, Barnyardgrass ([15]; 500 g ai/ha): 80; Plant response rating, Wheat ([16]; 125 g ai/ha): 50; Plant response rating, Wheat ([16]; 500 g ai/ha): 80; Plant response rating, Galium ([17]; 125 g ai/ha): 60; Plant response rating, Galium ([17]; 500 g ai/ha): 70; Plant response rating, Sedge, Umbrella (Flood) [18]: 0; Plant response rating, Pigweed ([19]; 125 g ai/ha): 40; Plant response rating, Pigweed ([19]; 500 g ai/ha): 70; Plant response rating, Ducksalad (Flood) [20]: 100
O=C1NCC(c2cccc(Oc3ccc(F)cn3)c2)C1C(=O)Nc1cccc(F)c1F (single isomer, unassigned) [Compound 52]	90	90	30	40	70	90	0	60	30	60	30	40	40	80	40	60	70	70	80	0	Plant response rating, Corn ([13]; 125 g ai/ha): 50; Plant response rating, Corn ([13]; 500 g ai/ha): 70; Plant response rating, Foxtail, Giant ([14]; 125 g ai/ha): 70; Plant response rating, Foxtail, Giant ([14]; 500 g ai/ha): 90; Plant response rating, Barnyardgrass ([15]; 125 g ai/ha): 70; Plant response rating, Barnyardgrass ([15]; 500 g ai/ha): 80; Plant response rating, Wheat ([16]; 125 g ai/ha): 0; Plant response rating, Wheat ([16]; 500 g ai/ha): 40; Plant response rating, Galium ([17]; 125 g ai/ha): 40; Plant response rating, Galium ([17]; 500 g ai/ha): 60; Plant response rating, Sedge, Umbrella (Flood) [18]: 0; Plant response rating, Pigweed ([19]; 125 g ai/ha): 40; Plant response rating, Pigweed ([19]; 500 g ai/ha): 60; Plant response rating, Ducksalad (Flood) [20]: 100
